In brackets after ≈: the same amount, converted by molar mass. Activity calls are given as the source filed them. The calls are words filed in the database; no cut-off is given here.
Key:
Cannabinoid receptor 1 [1] = biological target: T1, Cannabinoid receptor 1 (Homo sapiens, UniProt P21554); test: Positive allosteric modulation of human CB1 receptor expressed in CHO-K1 cells assessed as beta-arrestin 2 […] by measuring maximum efficacy incubated for 90 mins by PathHunter chemiluminescence based assay relative to control; type: cell-based
Cannabinoid receptor 1 [2] = biological target: T1, Cannabinoid receptor 1; test: Positive allosteric modulation of human CB1 receptor expressed in CHO-K1 cells assessed as inhibition of forskolin-induced cAMP production by measuring maximum efficacy incubated for 30 mins in presence of forskolin by HitHunter chemiluminescence based assay relative to control; type: functional, cell-based
Cannabinoid receptor 1 [3] = biological target: T1, Cannabinoid receptor 1; test: Displacement of [3H]CP55940 from human CB1 receptor expressed in CHO-K1 cell membranes incubated for 60 mins by liquid scintillation spectrometry analysis; parameters: species or system Cell membrane
Cannabinoid receptor 1 [4] = biological target: T1, Cannabinoid receptor 1; test: Positive allosteric modulation of human CB1 receptor expressed in CHO-K1 cells assessed as inhibition of forskolin-induced cAMP production incubated for 30 mins in presence of forskolin by HitHunter chemiluminescence based assay; type: functional, cell-based
Cannabinoid receptor 1 [5] = biological target: T1, Cannabinoid receptor 1; test: Positive allosteric modulation of human CB1 receptor expressed in CHO-K1 cells assessed as beta-arrestin 2 recruitment incubated for 90 mins by PathHunter chemiluminescence based assay; type: cell-based
Cannabinoid receptor 1 [6] = biological target: T1, Cannabinoid receptor 1; test: Agonist activity at human CB1 receptor expressed in CHO cell membranes assessed as increase in [35S]GTPgammaS binding by measuring maximum efficacy incubated for 30 mins in presence of CP55940 by liquid scintillation spectrometry analysis relative to control; type: functional; conditions: CHO-K1, Cell membrane, filed as agonist
in vitro [7] = conditions: rat, liver microsomes
Mus musculus = test: Antiglaucoma activity in normotensive C57BL/6 mouse model assessed as reduction in intraocular pressure at 5 mM administered topically measured after 1 hr; type: functional
in vitro [8] = conditions: human, liver microsomes
[9] = biological target: Cannabinoid receptor 1 (Mus musculus) (UniProt P47746); test: Positive allosteric modulation of CB1 receptor in C57BL/6 mouse hippocampal neurons assessed as decrease in inhibition of DSE recovery rate at 1 uM and holding potential at 0 mV for 10 secs followed by DSE stimulation; type: tissue-based; conditions: Neuron, filed as positive allosteric modulator, time 10.0 sec
Cannabinoid receptor 1 [10] = biological target: T1, Cannabinoid receptor 1; test: Potency index, ratio of GAT211 EC50 to test compound EC50 for positive allosteric modulation of human CB1 receptor expressed in CHO-K1 cells assessed as inhibition of forskolin-induced cAMP production incubated for 30 mins in presence of CP55940 by HitHunter chemiluminescence based assay; type: functional, cell-based
in vitro [11] = conditions: human, liver microsomes; remark: listed apart in the source
Cannabinoid receptor 1 [12] = biological target: T1, Cannabinoid receptor 1; test: Displacement of [3H]CP55940 from human CB1 receptor expressed in CHO-K1 cell membrane assessed as maximum efficacy incubated for 60 mins by liquid scintillation spectrometry analysis relative to control; type: cell membranes
Cannabinoid receptor 1 [13] = biological target: T1, Cannabinoid receptor 1; test: Agonist activity at human CB1 receptor expressed in CHO cell membranes assessed as increase in [35S]GTPgammaS binding incubated for 30 mins by liquid scintillation spectrometry analysis; type: functional, CHO-K1, Cell membrane
[14] = biological target: Cannabinoid receptor 1 (Mus musculus) (UniProt P47746); test: Agonist activity at CB1 receptor in C57BL/6 mouse hippocampal neurons assessed as inhibition of excitatory postsynaptic current at 1 uM at -70 mV holding membrane potential by whole cell patch clamp assay; type: functional, tissue-based; conditions: Neuron, filed as agonist
Cannabinoid receptor 1 [15] = biological target: Cannabinoid receptor 1 (Mus musculus, UniProt P47746); test: Positive allosteric modulation of CB1 receptor in MF1 mouse vas deferens assessed as inhibition of AEA-induced electrically evoked vas deferens contraction incubated for 13 mins followed by electrical stimulation for 2 mins (Rvb= 460 nM); type: tissue-based
in vitro [16] = conditions: rat, liver microsomes; remark: listed apart in the source
physchem = conditions: PBS buffer, pH 7.4
Cannabinoid receptor 1 [17] = biological target: T1, Cannabinoid receptor 1; test: Agonist activity at human CB1 receptor expressed in CHO cell membranes assessed as increase in [35S]GTPgammaS binding by measuring maximum efficacy incubated for 30 mins by liquid scintillation spectrometry analysis relative to control; type: functional; conditions: CHO-K1, Cell membrane, filed as agonist
[18] = biological target: Cannabinoid receptor 1 (Mus musculus) (UniProt P47746); test: Positive allosteric modulation of CB1 receptor in MF1 mouse vas deferens assessed as inhibition of AEA-induced electrically evoked vas deferens contraction by measuring maximum efficacy incubated for 13 mins followed by electrical stimulation for 2 mins (Rvb= […]+/- […]% ); type: tissue-based; conditions: filed as positive allosteric modulator
[19] = filed as positive allosteric modulator

Cannabinoid receptor 1 (Mus musculus), sequence (P47746 whole entry): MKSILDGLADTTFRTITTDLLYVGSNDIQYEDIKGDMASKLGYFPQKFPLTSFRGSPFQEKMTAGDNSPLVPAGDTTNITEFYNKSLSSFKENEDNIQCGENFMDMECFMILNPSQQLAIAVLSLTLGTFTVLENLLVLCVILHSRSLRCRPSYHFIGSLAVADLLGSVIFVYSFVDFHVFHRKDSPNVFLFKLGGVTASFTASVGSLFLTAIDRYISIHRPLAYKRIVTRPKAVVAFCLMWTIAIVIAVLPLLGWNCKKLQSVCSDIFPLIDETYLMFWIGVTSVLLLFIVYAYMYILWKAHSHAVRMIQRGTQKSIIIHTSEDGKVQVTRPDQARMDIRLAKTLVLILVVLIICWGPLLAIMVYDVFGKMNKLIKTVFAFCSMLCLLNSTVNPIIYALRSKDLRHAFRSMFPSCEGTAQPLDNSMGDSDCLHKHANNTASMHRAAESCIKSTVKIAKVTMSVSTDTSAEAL
T1 sequence (P21554 whole entry): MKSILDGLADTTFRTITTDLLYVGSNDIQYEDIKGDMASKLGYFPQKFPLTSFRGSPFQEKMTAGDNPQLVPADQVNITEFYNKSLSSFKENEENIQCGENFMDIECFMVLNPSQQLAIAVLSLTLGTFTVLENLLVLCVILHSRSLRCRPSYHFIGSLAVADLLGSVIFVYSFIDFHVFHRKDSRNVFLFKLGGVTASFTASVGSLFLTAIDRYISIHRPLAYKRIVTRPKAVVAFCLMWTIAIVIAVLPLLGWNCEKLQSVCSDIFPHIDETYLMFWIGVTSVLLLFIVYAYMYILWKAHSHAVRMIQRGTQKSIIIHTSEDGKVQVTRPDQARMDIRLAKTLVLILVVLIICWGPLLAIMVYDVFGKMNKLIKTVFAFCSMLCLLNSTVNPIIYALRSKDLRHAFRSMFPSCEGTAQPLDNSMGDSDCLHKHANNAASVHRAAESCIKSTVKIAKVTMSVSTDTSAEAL
Cannabinoid receptor 1 (Mus musculus, UniProt P47746), sequence (P47746 whole entry): as the sequence (P47746 whole entry) above

Compound	Emax (Cannabinoid receptor 1 [1]) [%]	EC50 (Cannabinoid receptor 1 [4]) [nM]	EC50 (Cannabinoid receptor 1 [5]) [nM]	Emax (Cannabinoid receptor 1 [2]; [19]) [%]	also measured
O=[N+]([O-])CC(c1ccccc1)c1c(-c2ccn[nH]2)[nH]c2ccccc12 (stereo in doubt; 15g) [listing 1 of 2 here]	0				Emax (Cannabinoid receptor 1 [2]): 0%
O=[N+]([O-])CC(c1ccccc1)c1c(-c2ccsc2)[nH]c2ccccc12 (stereo unspecified)		87	320	98	Ki (Cannabinoid receptor 1 [3]): 43 nM; Emax (Cannabinoid receptor 1 [6]): 46%; microsomal CLint at 0.25 h, 1 µM (in vitro [7]): 489 µL/min/mg; Activity (Mus musculus): 3.2 mmHg; microsomal CLint at 0.25 h, 1 µM (in vitro [8]): 111 µL/min/mg; Activity [9]: Active; Ratio EC50 (Cannabinoid receptor 1 [10]): 3; half-life at 0.25 h, 1 µM (in vitro [11]): 20.8 min; Emax (Cannabinoid receptor 1 [12]; [19]): 100%; Emax (Cannabinoid receptor 1 [1]; [19]): 46%; EC50 (Cannabinoid receptor 1 [13]): 130 nM; inhibition [14]: Active; EC50 (Cannabinoid receptor 1 [15]): 30 nM; half-life at 0.25 h, 1 µM (in vitro [16]): 4.72 min; solubility kinetic at 2 h, 200 µM (physchem): 1.56 µM (≈ 0.544 µg/mL); Emax (Cannabinoid receptor 1 [17]): 49%; Emax [18]: 62%
O=[N+]([O-])CC(c1ccccc1)c1c(-c2ccccc2)[nH]c2ccccc12 (stereo unspecified)					Emax (Cannabinoid receptor 1 [12]; [19]): 57%
O=[N+]([O-])CC(c1ccccc1)c1c(-c2cc3ccccc3[nH]2)[nH]c2ccccc12 (stereo unspecified)	3.3	> 10000	> 10000	110	
O=[N+]([O-])CC(c1ccccc1)c1c(-c2cncs2)[nH]c2ccccc12 (stereo unspecified)	5.1	1500	> 10000	100	
CC(C)(C)OC(=O)n1c(-c2[nH]c3ccccc3c2C(C[N+](=O)[O-])c2ccccc2)cc2ccccc21 (stereo unspecified)	0	> 10000	> 10000		Emax (Cannabinoid receptor 1 [2]): 0%
O=[N+]([O-])CC(c1ccccc1)c1c(-c2cn[nH]c2)[nH]c2ccccc12 (stereo unspecified)	3.5	> 10000	> 10000	110	
O=[N+]([O-])CC(c1ccccc1)c1c(-c2cscn2)[nH]c2ccccc12 (stereo unspecified)		1200	> 10000		Emax (Cannabinoid receptor 1 [1]; [19]): 45%; Emax (Cannabinoid receptor 1 [2]): 38%
O=[N+]([O-])CC(c1ccccc1)c1c(-c2c[nH]c3ccccc23)[nH]c2ccccc12 (stereo unspecified)	1.3	> 10000	> 10000		Emax (Cannabinoid receptor 1 [2]): -71%
O=[N+]([O-])CC(c1ccccc1)c1c(-c2ccco2)[nH]c2ccccc12 (stereo unspecified)	11	130	2100	140	
O=[N+]([O-])CC(c1ccccc1)c1c(-c2ccn[nH]2)[nH]c2ccccc12 (stereo in doubt; 15h) [listing 1 of 2 here]	0.76			120	
O=[N+]([O-])CC(c1ccccc1)c1c(-c2cc[nH]c2)[nH]c2ccccc12 (stereo unspecified)	-1.5	> 10000	> 10000	52	
O=[N+]([O-])CC(c1ccccc1)c1c(-c2cc3ccccc3o2)[nH]c2ccccc12 (stereo unspecified)	9.5	550	> 10000	96	
O=[N+]([O-])CC(c1ccccc1)c1c(-c2ccc[nH]2)[nH]c2ccccc12 (stereo unspecified)	25	220	> 10000	110	
O=[N+]([O-])CC(c1ccccc1)c1c(-c2nccs2)[nH]c2ccccc12 (stereo unspecified)	2.8	790	> 10000	72	
O=[N+]([O-])CC(c1ccccc1)c1c(-c2ccoc2)[nH]c2ccccc12 (stereo unspecified)	18	100	> 1000	120	
O=[N+]([O-])CC(c1ccccc1)c1c(-c2cccs2)[nH]c2ccccc12 (stereo unspecified)		170	110	85	microsomal CLint at 0.25 h, 1 µM (in vitro [7]): 595 µL/min/mg; microsomal CLint at 0.25 h, 1 µM (in vitro [8]): 115 µL/min/mg; half-life at 0.25 h, 1 µM (in vitro [11]): 20 min; Emax (Cannabinoid receptor 1 [1]; [19]): 57%; half-life at 0.25 h, 1 µM (in vitro [16]): 3.88 min; solubility kinetic at 2 h, 200 µM (physchem): 1.56 µM (≈ 0.544 µg/mL)
O=[N+]([O-])CC(c1ccccc1)c1c(-c2cc3ccccc3s2)[nH]c2ccccc12 (stereo unspecified)	13	150	> 10000	130	
CC(C)[Si](C(C)C)(C(C)C)n1ccc(-c2[nH]c3ccccc3c2C(C[N+](=O)[O-])c2ccccc2)c1 (stereo unspecified)	-4.5	970	> 10000	120	
O=[N+]([O-])CC(c1ccccc1)c1c(-c2ccn[nH]2)[nH]c2ccccc12 (stereo in doubt; 15h) [listing 2 of 2 here]					EC50 (Cannabinoid receptor 1 [4]; cho-k1): > 10000 nM; EC50 (Cannabinoid receptor 1 [5]; cho-k1): > 10000 nM
O=[N+]([O-])CC(c1ccccc1)c1c(-c2ccn[nH]2)[nH]c2ccccc12 (stereo in doubt; 15g) [listing 2 of 2 here]		> 10000	> 10000		
CCCCCCC(C)(C)c1ccc([C@@H]2C[C@H](O)CC[C@H]2CCCO)c(O)c1					Emax (Cannabinoid receptor 1 [12]): -100%; Emax (Cannabinoid receptor 1 [17]): 42%
